# Legend:
# [1] = test system: IRF-Lucia luciferase reporter (ISRE) in THP1-Dual cells; experiment: THP1-Dual IRF-Lucia luciferase reporter assay (ISRE activation); assay type: cell-based, human; settings: THP1-Dual
# Outline: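 Supernatant luminescence from the ISG54/ISRE-driven Lucia reporter was measured after 24 h exposure to 10 μM compound (LPS 313 ng/mL in control wells).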
# [2] = THP1-Dual cytotoxicity (Cell Titer Glo, ATP); assay type: cell-based, human; settings: human, THP1-Dual cells
# Outline: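 CC50, the concentration killing half the cells, was derived from ATP-dependent CellTiter-Glo luminescence. Cells were THP1-Dual (human) and compound was tested as an 8-point dose-response series, with viability read in the same plate.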
# [3] = test system: IRF-Lucia luciferase reporter (ISRE) in J774-Dual cells; experiment: J774-Dual IRF-Lucia luciferase reporter assay (ISRE activation); assay type: cell-based, mouse; settings: J774-Dual
# Protocol: First, optimal assay conditions and assay quality in 384-well format were determined. As mentioned, the mouse macrophage J774 cell line (J774-Dual, InvivoGen) stably transfected with the same inducible reporters described above (e.g., IRF-Lucia luciferase and NF-κB-SEAP) was used. The responsiveness of the J774-Dual cell line was investigated in an array of assay conditions to obtain sensitive and reproducible results for the activation of the IRF and NF-κB reporters. An optimal plating density and conditions for these cells was established for these cells in a 384-well format. Assay work-flow is similar to that discussed above for the THP1-Dual assay without a need for cell differentiation. Thus, cells are seeded directly in growth medium and incubated at 37° C. in a 5% C02 incubator for 24 hours prior to the programmed treatments being added as described herein.
# The primary high throughput screen used the HTS platform of human THP1 monocyte cells containing the IRF-Lucia luciferase and NFκB-SEAP (secreted embryonic alkaline phosphatase) dual reporter (THP1-Dual, Invivogen), enabling the simultaneous study of the IRF and NFκB signaling pathways respectively. As discussed, the Lucia luciferase reporter gene is under the control of an ISG54 (interferon-stimulated gene) minimal promoter in conjunction with five interferon-stimulated response elements (ISRE). The SEAP gene is driven by an IFNβ minimal promoter fused to five copies of the NFκB consensus transcriptional response element and three copies of the c-Rel binding site. Both IRF-Lucia luciferase and NFκB-SEAP reporter proteins are secreted and readily measurable in the cell culture supernatant when using QUANTI-Luc™ and QUANTI-Blue™ detection reagents, respectively. Identified “hits” were confirmed in a secondary screen with an 8-point dose response curve. Hits were further screened for activity in the mouse using the mouse J774 macrophage-like cell line containing the identical reporter constructs (J774-Dual, Invivogen).
# The OTRADI Small Molecule Library of approximately 246,000 diverse compounds (see below for description) was screened using the THP1-Dual based HTS platform described above. All transfer steps in the screen are fully automated, thus reducing variability. Primary screening included a single data point or dose for each molecule. After data normalization was applied for each assay run, “hit” selection was performed on the plates that pass the quality control (QC) criterion. Hits were defined as samples having values above the activity cutoff determined based on noise level of the assay to reduce false positive rates. In the pilot study discussed above this activity value was >3σ above the ISRE mean with the added criteria of NFκB activation being lower than […] from the mean to identify IRF selective compounds. The ratio of ISRE:NFκB activity was also calculated as a selectivity index for prioritizing hit selection. Primary hits underwent secondary screening to determine the 50% effective concentration (EC50) and 50% cytotoxic concentration (CC50) of these agents using an 8-point dose-response curve in the human THP1-Dual cells. Cytotoxicity was measured in the plate using Cell Titer Glo (Promega). Identified candidate compounds were further screened (orthogonal screen) for cross species activity in the validated mouse J774-Dual assay using an 8-point dose-response format to determine EC50 and CC50 values as well as ISRE:NFκB ratios. A general process flow for the experimental design laid out above is depicted at FIG. 12.
# SH-SY5Y cells = experiment: Gene induction in SH-SY5Y cells (qtPCR); assay type: cell-based, human; settings: 20 μM, 3 hours, preliminary results
# Protocol: FIG. 11 is a bar graph showing that the human-specific IRF activator AV-C induces robust IFIT1 and RSAD2 expression, with no increase in TNF expression. SH-SY5Y cells were treated with 20 μM AV-C for 3 hours. RNA was collected from cell pellets and qtPCR was performed with indicated primers. Values at FIG. 11 are normalized to actin and presented as fold change over vehicle control.
# To determine if the human specific IRF activator, AV-C could induce IRF activated genes, the human neuroblastoma cell line SH-SY5Y was stimulated with 20 μM AV-C for 3 hours. […] Specifically, as mentioned, SH-SY5Y cells were treated with 20 μM AV-C for 3 hours. RNA was collected from cell pellets and qtPCR was performed with indicated primers. Values at FIG. 11 are normalized to actin and presented as fold change over vehicle control.
smiles,measurement,setting,value
"CC(C)c1nnc(N2C(=O)c3oc4ccccc4c(=O)c3C2c2ccccc2F)s1 (stereo not drawn) [AV-C, 1-(2-fluorophenyl)-2-(5-isopropyl-1,3,4-thiadiazol-2-yl)-1,2-dihydrochromeno[2,3-c]pyrrole-3,9-dione, reference compound]",EC50,"[1]; Homo sapiens, THP1-Dual control compound, 8-point dose response, read-out: EC50 ISRE activation",5.3 µM
same,"ISRE response, % of LPS maximum",[1]; 25 μM,75%
same,IRF signal intensity relative to LPS control,[1]; at its EC50,~10%
same,CC50,"[2]; THP1-Dual control compound, 8-point dose response, read-out: CC50",7.9 µM
same,selectivity ratio,[2]; read-out: Selectivity Index (CC50/EC50) (text: toxicity index),1.5
same,IRF activation in mouse cells,[3],minimal IRF activation
same,"ISRE response, % of LPS maximum",[3]; 25 μM,10%
same,IFIT1 and RSAD2 expression,SH-SY5Y cells,increased
same,TNF expression,SH-SY5Y cells,no increase
